From US20180312493A1, “Antibiotic Compounds, Pharmaceutical Formulations Thereof And Methods And Uses Therefor” (Simon Fraser University, priority 2015, published 2018)
≈ marks a conversion by molar mass, not a printed value.

What follows are molecules tested against T1, MRSA Pyk (Staphylococcus aureus, UniProt Q6GG09) (assay: MRSA pyruvate kinase (PK) activity, continuous LDH-coupled assay). Conditions: not given.
T1 construct: made in house; host or cells: E. coli BL-21 (DE3)
Format: biochemical, methicillin resistant S. aureus (MRSA252)
Source text: Genomic DNA of MRSA strain Sanger 252 extracted using DNeasy Tissue Kit™ (Qiagen™) was used as a template to generate the His-tagged MRSA PK. Human cDNA from MCF-7 breast cancer cell line (courtesy of Dr. J Wong, BC Cancer Research Center (Vancouver, Canada)) was used as a template to generate the full-length human M2 PK enzyme. The following primer sets were used creating appropriate restriction sites (NdeI and XhoI sites underlined): For cloning of MRSA PK: M27F 5′-[…]-3′ and M27R 5′-[…]-3′, for cloning of human M2 PK isoform: hM2F 5′-[…]-3′ and hM2R 5′-[…]-3′. The resulting PCR fragments for each construct were cloned into the NdeI and XhoI unique sites of the bacterial expression vector pET-28a (+) (Novagen™). […] The sequence and the correct reading frame of all constructs were verified by sequencing. Human M1, R and L PK constructs in pET-28-a(+) vectors (courtesy of Dr. L. Cantley, Harvard Medical, School (Boston, USA)) were used to generate relevant recombinant His-tagged human PK isoforms.
MRSA and human constructs in pET-28a(+) were used to express relevant recombinant PK proteins in E. coli BL-21 (DE3). The proteins were expressed and purified using Ni-NTA agarose (Qiagen™) according to the manufacturer's protocol. Briefly, cells were grown to an absorbance of 0.4-0.5 at 600 nm in 2×YT medium, then induced with 0.1 mM IPTG for 3 h at 20° C. Cells were lysed by sonication on ice (3×10-s bursts with a 30-s recovery between bursts) in lysis buffer (0.2 mg/ml lysozyme, 50 mM Tris pH 7.5, 10 mM MgCl2, 200 mM NaCl, 100 mM KCl, 10% glycerol, 10 mM imidazole, 0.5% NP-40 and 1 mM DTT containing Complete™ protease inhibitor). Cell lysates were cleared by centrifugation (18,000×g in a Beckman™ JA-20 rotor) for 20 min at 4° C. and PK isoforms were purified by batch binding to Ni-NTA resin. The resins were then packed in columns (1×2 cm) and washed with 400 column volumes lysis buffer containing 30 mM imidazole. His-tagged PK isoforms were eluted with the same buffer containing 300 mM imidazole. The proteins were dialyzed overnight at 4° C. against 2000 volumes of ice-cold 30 mM Tris pH 7.5, 25 mM KCl, 5 mM MgCl2, 10% glycerol and 1 mM DTT to remove imidazole. All purification steps were done at 4° C.; enzymes were flash-frozen and stored at −70° C. Enzymatic activity of frozen protein preparations was stable for at least 10 months and up to 5 freeze/thaw cycles. Purity and physical integrity of proteins were assessed using SDS-polyacrylamide gel electrophoresis (SDS-PAGE) followed by coomassie blue staining. Protein concentration was estimated by Bradford assay (Bio-Rad Protein Assay™) using bovine serum albumin as a standard.
Candidate MRSA PK inhibitors were assayed for their ability to inhibit enzymatic activities of MRSA and human PKs. PK activity was determined using a continuous assay coupled to lactate dehydrogenase (LDH) in which the change in absorbance at 340 nm owing to oxidation of NADH was measured using a Benchmark Plus™ microplate spectrophotometer (Bio-Rad Laboratories, Hercules, Calif.). […] Reactions were initiated by the addition of 15 nM of one of the PK enzymes. PK activity proportional to the rate of change at 340 nm was expressed as specific activity (μmol/min/mg), which is defined as the amount of PK that catalyzes the formation of one micromole of either product per minute. Inhibitors were dissolved in DMSO with the final concentration of the solvent never exceeding 1% of the assay volume. IC50 values were calculated by curve fitting on a four-parameter dose-response model with variable slope using Graphpad Prism 5.0™ (GraphPad™ Software Inc., La Jolla, Calif.). In all studies, less than 10% of total PEP was exhausted during the reaction. Reactions were performed at 30° C. for up to 5 min. All values determined represent at least two measurements, in triplicate (Tables 1-6) or duplicate unless mentioned otherwise. […]

T1 sequence (Q6GG09 whole entry): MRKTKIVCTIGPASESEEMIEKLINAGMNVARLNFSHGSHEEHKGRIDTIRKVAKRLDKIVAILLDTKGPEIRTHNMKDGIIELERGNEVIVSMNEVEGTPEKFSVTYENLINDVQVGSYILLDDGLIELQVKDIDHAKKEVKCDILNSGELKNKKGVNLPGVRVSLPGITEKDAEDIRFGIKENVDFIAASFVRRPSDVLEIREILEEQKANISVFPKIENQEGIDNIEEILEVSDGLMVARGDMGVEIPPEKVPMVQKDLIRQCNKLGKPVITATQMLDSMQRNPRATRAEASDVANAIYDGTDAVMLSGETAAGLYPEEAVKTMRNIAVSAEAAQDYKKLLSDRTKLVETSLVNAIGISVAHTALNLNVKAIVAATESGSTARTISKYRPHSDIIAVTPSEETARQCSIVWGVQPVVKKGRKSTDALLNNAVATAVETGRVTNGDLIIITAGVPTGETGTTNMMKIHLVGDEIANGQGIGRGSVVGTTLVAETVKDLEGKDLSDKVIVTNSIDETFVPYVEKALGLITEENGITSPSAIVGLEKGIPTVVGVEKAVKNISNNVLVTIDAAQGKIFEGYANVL

Row | SMILES | IC50 [nM]
1 | OC(c1c(CCc2ccc(Cl)cc2)[nH]c2cc(Br)ccc12)C(F)(F)F (centres unmarked) [Compound 17] | 100 to 1000
2 | O=C(NCc1cccnc1)c1c(/C=C/c2ccc(Cl)nc2)[nH]c2cc(Br)ccc12 [Compound 37, (E)-6-Bromo-2-(2-(6-chloropyridin-3-yl)vinyl)-N-(pyridin-3-ylmethyl)-1 H-indole-3-carboxamide] | 100 to 1000
3 | O=C(NCCN1CCOCC1)c1c(/C=C/c2ccc(Cl)cc2)[nH]c2cc(Br)ccc12 [Compound 29, (E)-6-Bromo-2-(4-chlorostyryl)-N-(2-morpholinoethyl)-1H-indole-3-carboxamide] | > 1000
4 | CN(C)CCNC(=O)c1c(NCc2ccc(Cl)cc2)[nH]c2cc(Br)ccc12 [Compound 83, 6-bromo-2-(4-chlorobenzylamino)-N-(2-(dimethylamino)ethyl)-1H-indole-3-carboxamide] | > 1000
5 | COc1ccc(CCc2[nH]c3cc(Br)ccc3c2CCO)nc1 [Compound 71, 2-(6-Bromo-2-(2-(5-methoxypyridin-2-yl)ethyl)-1H-indol-3-yl)ethanol] | > 1000
6 | O=C(NCCCO)c1c(-c2cc3cc(Cl)ccc3[nH]2)[nH]c2cc(Br)ccc12 [Compound 133, 6-Bromo-5′-chloro-N-(3-hydroxypropyl)-1H,1′H-[2,2′-biindole]-3-carboxamide] | < 100
7 | CC(=O)OCC(=O)Nc1c(CCc2ccc(Cl)cc2)[nH]c2cc(Br)ccc12 [Compound 97, 2-(6-Bromo-2-(4-chlorophenethyl)-1H-indol-3-ylamino)-2-oxoethyl Acetate] | > 1000

The molecules below were run on S. aureus (ATCC29213) (assay: In vitro susceptibility, broth microdilution (MIC)). Conditions: Staphylococcus aureus; S. aureus ATCC29213; 18-24 h, 37 C; read-out: Antimicrobial activity (MIC) S. aureus ATCC29213.
Format: cell-based
Source text: Epidemic methicillin resistant S. aureus (MRSA) strain sequenced at the Sanger Centre (MRSA252, NRS71) was obtained from NARSA (Network on Antimicrobial Resistance in S. aureus). Methicillin sensitive S. aureus (ATCC 29213 and 25923), methicillin resistant S. aureus (ATCC BAA-1762), and Salmonella typhimurium (ATCC BAA-185) were obtained from ATCC, The Global Bioresource Center. Acinetobacter baumannii (ATCC 19606 and ATCC 17978), Klebsiella pneumonia (C238), vancomycin resistant Enterococci #2 (2010A) (VRE#2), MRSA (USA400, MW2) and Pseudomonas aeruginosa (PA0-1) were obtained from the laboratory of Dr B. B. Finlay at the University of British Columbia (Vancouver, Canada).
The antimicrobial activities of PK inhibitor candidates were determined using the 96-well microtiter standard 2-fold serial broth microdilution method as described by CLSI (formerly NCCLS) with the various gram-positive and gram-negative bacteria species mentioned above. Bacteria from a single colony were grown, overnight in either BHI Broth (VRE), mueller hinton broth (S. aureus 29213; MRSA USA400, A. baumannii 19606, MRSA BAA-1762) or L-broth (P. aeruginosa, S. typhimurium, K. pneumonia and A. baumannii 17978). […] Culture plates were incubated for 18-24 h at 37° C., and optical density at 600 nm (OD600) was measured using a Benchmark Plus™ microplate spectrophotometer (Bio-Rad™). The absorbance control values for the series containing CAMHB and inhibitor were subtracted as background from the corresponding infected wells. Minimal inhibitory concentration (MIC) was defined as the lowest concentration of test compound leading to complete inhibition of cell growth in relation to compound-free control wells as determined by optical density. Vancomycin, methicillin and ciprofloxicin were used as reference compounds. All assays were run in triplicate or duplicate. Experiments were replicated at least twice to verify reproducibility using the above conditions.

Row | SMILES | MIC [µg/mL]
8 | O=C(Nc1ccc(Cl)cc1)Nc1nc2cc(F)ccc2o1 [Compound 179, 1-(4-chlorophenyl)-3-(5-fluorobenzo[d]oxazol-2-yl)urea] | > 64
9 | OC(c1c(CCc2ccc(Cl)cc2)[nH]c2cc(Br)ccc12)C(F)(F)F (centres unmarked) [Compound 17] | 2 (≈ 4.62 µM)
10 | CNC(=O)c1c(/C=C/c2ccc(Cl)cc2)[nH]c2cc(Br)ccc12 [Compound 20, (E)-6-Bromo-2-(4-chlorostyryl)-N-methyl-1H-indole-3-carboxamide] | 64 (≈ 164 µM)
11 | O=C(Nc1nc2cc(F)ccc2o1)NC1CCCCC1 [Compound 180, 1-cyclohexyl-3-(5-fluorobenzo[d]oxazol-2-yl)urea] | > 64
12 | CCOC(=O)c1ccc2sc(NC(=O)Nc3ccc(Cl)cc3)nc2c1 [Compound 171, ethyl 2-(3-(4-chlorophenyl)ureido)benzo[d]thiazole-5-carboxylate] | > 64
13 | O=C(Nc1ccccn1)Nc1nc2cc(Br)ccc2s1 [Compound 163, 1-(5-bromobenzo[d]thiazol-2-yl)-3-(pyridin-2-yl)urea] | > 64
14 | COC(=O)[C@@H]1CN(CCNC(=O)c2c(-c3cc4cc(Cl)ccc4[nH]3)[nH]c3cc(Br)ccc23)CCN1 [Compound 227, Methyl (S)-4-(2-(6-bromo-5′-chloro-1H,1′H-[2,2′-biindole]-3-carboxamido)ethyl)piperazine-2-carboxylate] | > 64
15 | COc1ccc2sc(NC(=O)Nc3ccc(Cl)cc3)nc2c1 [Compound 165, 1-(4-chlorophenyl)-3-(5-methoxybenzo[d]thiazol-2-yl)urea] | > 64
16 | NC(=O)N1CCN(CCNC(=O)c2c(-c3cc4cc(Cl)ccc4[nH]3)[nH]c3cc(Br)ccc23)CC1 [Compound 132, 6-bromo-N-(2-(4-carbamoylpiperazin-1-yl)ethyl)-5′-chloro-1H,1′H-2,2′-biindole-3-carboxamide] | > 64
17 | O=C(Nc1ccc(Cl)cc1)Nc1nc2cc(Cl)ccc2o1 [Compound 177, 1-(5-chlorobenzo[d]oxazol-2-yl)-3-(4-chlorophenyl)urea] | > 64
18 | O=C(Nc1ccc(Cl)cc1)Nc1nc2ccccc2o1 [Compound 164, 1-(benzo[d]oxazol-2-yl)-3-(4-chlorophenyl)urea] | > 64
19 | O=C(Nc1ccc(Cl)cc1)Nc1nc2cc([N+](=O)[O-])ccc2s1 [Compound 167, 1-(4-chlorophenyl)-3-(5-nitrobenzo[d]thiazol-2-yl)urea] | > 64
20 | OC(c1c(CCc2cc(Cl)cc(Cl)c2)[nH]c2cc(Br)ccc12)(C(F)(F)F)C(F)(F)F [Compound 15, 2-(6-Bromo-2-(3,5-dichlorophenethyl)-1H-indol-3-yl)-1,1,1,3,3,3-hexafluoropropan-2-ol] | 1 (≈ 1.87 µM)
21 | O=C(Nc1nc2cc(Cl)ccc2o1)NC1CCCCC1 [Compound 178, 1-(5-chlorobenzo[d]oxazol-2-yl)-3-cyclohexylurea] | > 64
22 | O=C(Nc1ccc(Cl)cc1)Nc1nc2ccccc2s1 [Compound 162, 1-(benzo[d]thiazol-2-yl)-3-(4-chlorophenyl)urea] | > 64
23 | COC(=O)[C@@H]1CN(CCNC(=O)c2c(-c3cc4cc(Cl)ccc4[nH]3)[nH]c3cc(Br)ccc23)CCN1C(=O)OCc1ccccc1 [Compound 226, 1-benzyl 2-methyl (S)-4-(2-(6-bromo-5′-chloro-1H,1′H-[2,2′-biindole]-3-carboxamido)ethyl)piperazine-1,2-dicarboxylate] | > 64
24 | O=C(NCCN1CCN(C(=O)COCC(=O)N2CCN(CCNC(=O)c3c(/C=C/c4ccc(Cl)cc4)[nH]c4cc(Br)ccc34)CC2)CC1)c1c(/C=C/c2ccc(Cl)cc2)[nH]c2cc(Br)ccc12 [Compound 56, (E)-N,N′-((4,4′-(2,2′-oxybis(acetyl))bis(piperazine-4,1-diyl))bis(ethane-2,1-diyl))bis(6-bromo-2-((E)-4-chlorostyryl)-1H-indole-3-carboxamide)] | > 64
25 | CS(=O)(=O)NC(=O)CNC(=O)c1c(-c2cc3cc(Cl)ccc3[nH]2)[nH]c2cc(Br)ccc12 [Compound 151, 6-bromo-5′-chloro-N-(2-(methylsulfonamido)-2-oxoethyl)-1H,1′H-[2,2′-biindole]-3-carboxamide] | > 64
26 | O=C(O)C1CNCCN1C(=O)c1c(-c2cc3cc(Cl)ccc3[nH]2)[nH]c2cc(Br)ccc12 (centres unmarked) [Compound 225, 1-(6-bromo-5′-chloro-1H,1′H-[2,2′-biindole]-3-carbonyl)piperazine-2-carboxylic Acid] | > 64
